The results in this text go back to US12569563B2, “Selective HDAC6 degraders and methods of use thereof” (DANA-FARBER CANCER INSTITUTE, INC., priority 2019, dated 2026).

Holding throughout (type): biochemical
One test deals with T1, HDAC1 (Homo sapiens, UniProt Q13547).
T1 construct: purchased Reaction Biology
Kind of test: HDAC assay from Reaction Biology, fluorogenic substrate. To be noted: 10-dose response curve; read-out: Compound IC50 HDAC1. The method, then:
(§1) Compounds 1 and 3 were tested in a HDAC assay from Reaction Biology® against 10 different HDACs.
(§2) Base Reaction buffer: 50 mM Tris-HCl, pH8.0, 137 mM NaCl, 2.7 mM KCl, and 1 mM MgCl2,
(§3) Add fresh: 1 mg/ml BSA, 1% DMSO
(§4) Fluorogenic HDAC General Substrate (HDAC1, HDAC2, HDAC3, HDAC6, HDAC10, and HDAC11): 50 μM, Arg-His-Lys-Lys(Ac)-AMC
(§5) • (HDAC8 only substrate: 50 μM, Arg-His-Lys(Ac)-Lys(Ac))-AMC Class2A Substrate (HDAC4, HDAC5, HDAC7, and HDAC9): Boc-Lys(trifluoroacetyl)-AMC For SIRTs 1-3, general Class1 HDAC substrate and 500 μM NAD+ For SIRT5, Ac-Lys-succ and 500 μM NAD+ Reaction Procedure Deacetylation Step • 1. Delivered 2× enzyme in wells of reaction plate except in the control wells and added buffer to control wells. • 2. Delivered compounds in 100% DMSO into the enzyme mixture by Acoustic technology (Echo550; nanoliter range). Spin down and pre-incubation. • 3. Delivered 2× Substrate Mixture (Fluorogenic HDAC Substrate and co-factor if applicable) in all reaction wells to initiate the reaction. Spin and shake. • 4. Incubated for 30 min for Class 2A, 1 hr for HDAC1, 2, 3, and 6, and 2 hr for the rest of HDACs and SIRTs at 30° C. with seal. Development Step • 5. Added Developer with Trichostatin A (or Nicotinamide for SIRTs) to stop the reaction and to generate fluorescent color. • 6. The fluorescence that was generated was detected with excitation (Ex) at […] and emission (Em) at 460 nM by the EnVision Multilabel Plate Reader (PerkinElmer®, Santa Clara, CA, USA). • 7. IC50 values, presented in Table 1, were derived from a 10-dose response curve.

In the next test the target is T2, HDAC2 (Homo sapiens, UniProt Q92769).
T2 construct: purchased Reaction Biology
The description is as above. To be noted: 10-dose response curve; read-out: Compound IC50 HDAC2. The method, then:
as §1, §2, §3, §4, §5

Another test has as its target T3, HDAC3 (Homo sapiens, UniProt O15379).
T3 construct: purchased Reaction Biology
The test is described as above. To be noted: 10-dose response curve; read-out: Compound IC50 HDAC3. The method, then: as §1, §2, §3, §4, §5

In a further test the target is T4, HDAC5 (Homo sapiens, UniProt Q9UQL6).
T4 construct: purchased Reaction Biology
Kind of test: HDAC assay from Reaction Biology, Class2A substrate. To be noted: 10-dose response curve; read-out: Compound IC50 HDAC5. The method, then: as §1, §2, §3
as §5, with “IC50 values, presented in Table 1, were derived from a 10-dose response curve.” left out

In a further test the target is T5, HDAC8 (Homo sapiens, UniProt Q9BY41).
T5 construct: purchased Reaction Biology
T5 sequence (Q9BY41 1-377): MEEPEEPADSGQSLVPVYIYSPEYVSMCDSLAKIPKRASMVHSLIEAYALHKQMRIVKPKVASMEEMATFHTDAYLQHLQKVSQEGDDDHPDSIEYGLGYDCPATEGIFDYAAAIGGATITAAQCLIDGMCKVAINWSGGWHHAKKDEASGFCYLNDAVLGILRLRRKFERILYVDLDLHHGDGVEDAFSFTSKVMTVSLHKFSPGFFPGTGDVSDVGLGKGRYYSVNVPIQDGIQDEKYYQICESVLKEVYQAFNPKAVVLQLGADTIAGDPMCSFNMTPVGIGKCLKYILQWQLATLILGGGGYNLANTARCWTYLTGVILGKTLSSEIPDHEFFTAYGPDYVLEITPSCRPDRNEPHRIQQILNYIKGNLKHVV
Kind of test: HDAC assay from Reaction Biology, HDAC8 substrate. To be noted: 10-dose response curve; read-out: Compound IC50 HDAC8. The protocol:
as §1, §2, §3
as §5, with “IC50 values, presented in Table 1, were derived from a 10-dose response curve.” left out

For the next test, the target named is T6, HDAC6 (Homo sapiens, UniProt Q9UBN7).
T6 sequence (Q9UBN7 1-1215): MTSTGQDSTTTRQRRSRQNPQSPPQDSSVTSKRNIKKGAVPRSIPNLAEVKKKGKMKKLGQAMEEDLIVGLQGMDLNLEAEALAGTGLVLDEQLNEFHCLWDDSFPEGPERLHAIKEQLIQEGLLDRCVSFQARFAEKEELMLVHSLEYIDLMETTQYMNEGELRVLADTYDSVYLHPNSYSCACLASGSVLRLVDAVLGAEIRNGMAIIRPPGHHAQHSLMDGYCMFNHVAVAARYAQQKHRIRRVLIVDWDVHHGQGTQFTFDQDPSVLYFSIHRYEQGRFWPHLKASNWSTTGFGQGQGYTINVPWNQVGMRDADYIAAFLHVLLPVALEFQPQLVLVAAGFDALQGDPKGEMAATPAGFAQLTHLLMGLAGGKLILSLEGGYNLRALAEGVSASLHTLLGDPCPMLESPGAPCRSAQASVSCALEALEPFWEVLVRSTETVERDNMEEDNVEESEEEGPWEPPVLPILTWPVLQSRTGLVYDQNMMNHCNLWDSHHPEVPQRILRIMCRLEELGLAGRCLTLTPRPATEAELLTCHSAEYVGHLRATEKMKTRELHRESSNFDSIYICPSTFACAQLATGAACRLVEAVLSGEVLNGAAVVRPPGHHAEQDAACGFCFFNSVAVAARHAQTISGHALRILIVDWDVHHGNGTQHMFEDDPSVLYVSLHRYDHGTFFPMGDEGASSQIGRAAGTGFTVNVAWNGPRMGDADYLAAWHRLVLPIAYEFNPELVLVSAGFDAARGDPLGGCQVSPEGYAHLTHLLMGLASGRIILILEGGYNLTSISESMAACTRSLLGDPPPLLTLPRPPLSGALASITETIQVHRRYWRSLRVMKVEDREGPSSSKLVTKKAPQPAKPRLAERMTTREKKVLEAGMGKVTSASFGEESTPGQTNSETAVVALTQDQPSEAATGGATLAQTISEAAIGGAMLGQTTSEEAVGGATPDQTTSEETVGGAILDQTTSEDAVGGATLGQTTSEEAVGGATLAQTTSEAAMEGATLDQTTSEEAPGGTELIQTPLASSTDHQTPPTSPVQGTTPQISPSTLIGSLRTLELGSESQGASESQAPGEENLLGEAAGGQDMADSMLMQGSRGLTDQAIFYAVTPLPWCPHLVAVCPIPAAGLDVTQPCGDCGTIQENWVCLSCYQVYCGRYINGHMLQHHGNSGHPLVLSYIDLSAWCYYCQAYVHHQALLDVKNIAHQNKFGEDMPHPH
Kind of test: HDAC assay from Reaction Biology, fluorogenic substrate. The arrangement: purchased Reaction Biology. To be noted: 10-dose response curve; read-out: Compound IC50 HDAC6. The protocol: as §1, §2, §3, §4
as §5, with “Added Developer with Trichostatin A (or Nicotinamide for SIRTs) to stop the reaction and to generate fluorescent color. • 6.” left out, “IC50 values, presented in Table 1, were derived from a 10-dose response curve.” left out

What is called IC50 is the concentration at which inhibition is half-maximal.

T2 sequence (Q92769 whole entry): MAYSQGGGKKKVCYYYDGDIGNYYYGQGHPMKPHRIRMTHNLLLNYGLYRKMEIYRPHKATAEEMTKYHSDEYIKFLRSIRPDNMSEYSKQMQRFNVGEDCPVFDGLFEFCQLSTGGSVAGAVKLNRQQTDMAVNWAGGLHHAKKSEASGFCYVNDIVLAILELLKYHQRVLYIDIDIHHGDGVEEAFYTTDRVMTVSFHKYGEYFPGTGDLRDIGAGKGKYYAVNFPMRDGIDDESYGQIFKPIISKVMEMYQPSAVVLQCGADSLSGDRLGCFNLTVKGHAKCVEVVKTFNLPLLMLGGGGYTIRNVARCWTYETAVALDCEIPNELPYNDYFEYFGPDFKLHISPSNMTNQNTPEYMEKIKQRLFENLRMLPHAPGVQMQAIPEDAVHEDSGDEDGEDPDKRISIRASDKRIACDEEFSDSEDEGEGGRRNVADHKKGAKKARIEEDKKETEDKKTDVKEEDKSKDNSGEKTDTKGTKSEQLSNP
T3 sequence (O15379 whole entry): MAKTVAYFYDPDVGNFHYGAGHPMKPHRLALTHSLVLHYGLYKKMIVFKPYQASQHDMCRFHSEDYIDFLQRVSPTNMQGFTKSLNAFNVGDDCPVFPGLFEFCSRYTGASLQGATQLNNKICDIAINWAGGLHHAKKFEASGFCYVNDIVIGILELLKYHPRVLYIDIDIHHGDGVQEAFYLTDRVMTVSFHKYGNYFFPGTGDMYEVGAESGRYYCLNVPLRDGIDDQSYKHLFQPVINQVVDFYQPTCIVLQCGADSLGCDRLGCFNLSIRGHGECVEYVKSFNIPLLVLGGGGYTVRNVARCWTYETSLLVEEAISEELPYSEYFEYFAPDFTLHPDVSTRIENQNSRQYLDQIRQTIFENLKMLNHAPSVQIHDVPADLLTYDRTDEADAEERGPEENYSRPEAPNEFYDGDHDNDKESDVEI
T3 sequence (Q9Y618 395-489 partner limits assumed): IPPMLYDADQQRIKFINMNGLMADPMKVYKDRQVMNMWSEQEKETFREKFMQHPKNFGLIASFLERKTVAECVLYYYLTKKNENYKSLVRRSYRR
T4 sequence (Q9UQL6 whole entry): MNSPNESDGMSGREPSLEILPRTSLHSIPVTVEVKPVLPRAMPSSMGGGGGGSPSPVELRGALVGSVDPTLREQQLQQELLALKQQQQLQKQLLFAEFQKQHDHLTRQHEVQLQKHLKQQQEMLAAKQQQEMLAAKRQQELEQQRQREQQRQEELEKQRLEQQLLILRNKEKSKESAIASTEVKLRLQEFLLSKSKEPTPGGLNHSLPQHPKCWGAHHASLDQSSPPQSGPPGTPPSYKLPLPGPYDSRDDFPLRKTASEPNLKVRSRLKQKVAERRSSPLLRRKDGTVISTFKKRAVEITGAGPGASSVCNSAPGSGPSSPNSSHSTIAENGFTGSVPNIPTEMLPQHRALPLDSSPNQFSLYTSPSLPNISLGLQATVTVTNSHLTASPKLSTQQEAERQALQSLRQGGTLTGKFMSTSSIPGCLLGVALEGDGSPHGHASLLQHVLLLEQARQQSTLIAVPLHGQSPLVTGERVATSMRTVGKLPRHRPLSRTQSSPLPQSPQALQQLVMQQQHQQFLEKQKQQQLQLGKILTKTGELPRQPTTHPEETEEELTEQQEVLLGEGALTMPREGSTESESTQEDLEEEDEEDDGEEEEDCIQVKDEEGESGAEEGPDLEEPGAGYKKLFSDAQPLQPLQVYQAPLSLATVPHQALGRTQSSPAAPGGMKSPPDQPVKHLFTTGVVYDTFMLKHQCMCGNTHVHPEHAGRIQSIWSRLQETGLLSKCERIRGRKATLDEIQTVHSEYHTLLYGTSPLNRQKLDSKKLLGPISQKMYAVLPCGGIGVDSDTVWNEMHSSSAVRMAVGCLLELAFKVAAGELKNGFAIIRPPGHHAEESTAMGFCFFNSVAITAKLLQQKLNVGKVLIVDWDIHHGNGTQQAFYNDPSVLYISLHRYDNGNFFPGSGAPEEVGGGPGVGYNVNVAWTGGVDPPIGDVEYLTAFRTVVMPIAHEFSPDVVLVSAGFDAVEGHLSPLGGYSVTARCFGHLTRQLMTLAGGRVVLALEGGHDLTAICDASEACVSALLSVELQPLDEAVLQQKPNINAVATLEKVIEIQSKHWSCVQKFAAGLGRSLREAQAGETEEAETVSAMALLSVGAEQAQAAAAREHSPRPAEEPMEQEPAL
T1 sequence (Q13547 whole entry): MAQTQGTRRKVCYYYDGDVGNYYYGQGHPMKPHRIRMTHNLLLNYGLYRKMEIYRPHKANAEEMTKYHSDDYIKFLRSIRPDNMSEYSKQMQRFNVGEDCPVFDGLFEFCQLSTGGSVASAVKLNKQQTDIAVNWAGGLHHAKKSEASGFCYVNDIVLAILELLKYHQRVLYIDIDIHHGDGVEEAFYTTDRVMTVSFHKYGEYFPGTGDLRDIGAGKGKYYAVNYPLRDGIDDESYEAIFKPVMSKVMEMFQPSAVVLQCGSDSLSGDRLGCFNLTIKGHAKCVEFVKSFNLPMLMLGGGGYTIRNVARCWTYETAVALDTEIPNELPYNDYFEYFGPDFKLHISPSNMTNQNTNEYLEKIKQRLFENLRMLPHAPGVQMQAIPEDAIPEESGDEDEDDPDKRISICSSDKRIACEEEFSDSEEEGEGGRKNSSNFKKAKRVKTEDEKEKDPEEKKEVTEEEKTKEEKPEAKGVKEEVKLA

On to `CN(C(=O)CCCNc1cccc2c1C(=O)N(C1CCC(=O)NC1=O)C2=O)c1ccc(NC(=O)CCCCCCC(=O)NO)cc1` (stereo not drawn) [Compound 1, N^1-(4-(4-((2-(2,6-dioxopiperidin-3-yl)-1,3-dioxoisoindolin-4-yl)amino)-N-methylbutanamido)phenyl)-N^8-hydroxyoctanediamide], for which the IC50 is 1040 nM on HDAC1; 2470 nM at HDAC2; 1440 nM at HDAC3; 5750 nM at HDAC5; 621 nM at HDAC8; 48.5 nM on HDAC6.

For the molecule `CN(C(=O)CCCCCCCNc1cccc2c1C(=O)N(C1CCC(=O)NC1=O)C2=O)c1ccc(NC(=O)CCCCCCC(=O)NO)cc1` (stereo not drawn) [Compound 3, N^1-(4-(8-((2-(2,6-dioxopiperidin-3-yl)-1,3-dioxoisoindolin-4-yl)amino)-N-methyloctanamido)phenyl)-N^8-hydroxyoctanediamide], the IC50 at HDAC1 is 4410 nM; on HDAC2 it was 14400 nM; at HDAC3, 3430 nM; at HDAC5 it was 7830 nM; at HDAC8, 400 nM; on HDAC6, 40.1 nM.
